Reference: patent US6225332A, “Compositions containing histamine H2 agonists and methods of use in treating allergy and inflammation” (priority 1998, dated 2001)

What was measured:
rodent mast cell = conditions: cited from earlier work
[1] = human, in vivo; cited from earlier work
[2] = system: mast cells obtained from bronchoalveolar lavage fluid; conditions: 100 μM; human trials; cited from earlier work
human skin mast cells = conditions: cited from earlier work
[3] = system: human conjunctival mast cells; assay: Miller Test: inhibition of anti-IgE-induced histamine release (mast cell stabilization assay); assay type: cell-based; conditions: for inhibition at 10 µM / inhibition at 100 µM: * p < 0.05, Dunnett's t-test (dimaprit only); for inhibition at 1000 µM: * p < 0.05, Dunnett's t-test (both compounds)
Text: While mast cells exist in various tissues and species, there is considerable mast cell heterogeneity within these different sources. Therefore, in order to provide compounds of the present invention which are specific for human conjunctival mast cells, drug compounds need to be tested for inhibition of human conjunctival mast cell degranulation using human conjunctival mast cells. Such efficacy can be determined by using the method described in U.S. Pat. No. 5,360,720 (Miller et al.) and in Miller, et al., "Human conjunctival mast cell responses in vitro to various secretagogues," Ocular Immunology and Inflammation, volume 4, issue 1, pages 39-49 (1996) (the "Miller Test"), the entire contents of the forgoing patent and article are incorporated herein by reference.
The Miller Test is generally performed by the following protocol:
Human conjunctival tissue mast cells are isolated from post-mortem tissue donors obtained within 8 hours of death by various eye banks and transported in Dexsole corneal preservation medium. Tissues are then enzymatically digested by repeated exposure (30 minutes at 37° C.) to collagenase (Type IV) and hyaluronidase (Type I-S) (2 times with 200 U […] each/gram tissue, then 2-4 times with 2000 U each/gram tissue) in Tyrode's buffer containing 0.1% gelatin. Each digestion mixture is filtered over Nitex® cloth (100 µm mesh) and washed with an equal volume of buffer. Filtrates are centrifuged at 825×g (7 mininutes). Pellets are resuspended in buffer then combined for enrichment over a […] Percoll® cushion. The enriched pellet is then washed and resuspended in supplemented RPMI 1640 medium for equilibration at 37° C.
The preparations containing the mast cells are then placed in a culture medium, preferably supplemented RPMI 1640, and allowed to equilibrate at about 30°-37° C. for a minimum of about 40 hours.
After equilibrating for a minimum of about 40 hours, the cells may be harvested from the culture (for example, by gentle flushing utilizing pasteur pipettes), pooled and centrifuged.
Cell pellets may then be resuspended in buffer and viability and mast cell number determined by well known methods. The conjunctival mast cells are now prepared for use in mast cell stabilization assays.
All test drugs are placed into solution immediately prior to use. Generally, each compound is dissolved in Tyrode's buffer containing 0.1% gelatin and diluted to an appropriate concentration.
Cells are harvested from the culture plate and counted for viability (trypan blue exclusion) and mast cell number (toluidine blue O). Mast cells (5000/tube; 1 milliliter ("mL," final volume) are then challenged (37° C.) for 15 minutes with goat-anti-human IgE (10 μg/mL) following treatment (1 or 15 minutes; 37° C.) with test drug or Tyrode's buffer. Total and non-specific release controls are exposed to 0.1% Triton X-100 and goat IgG (10 μg/mL), respectively. The reaction was terminated by centrifugation (500×g, 4° C., 10 minutes). Supernatants are stored at -20° C. until analyzed for histamine content by radioimmunoassay ("RIA").
The IC50 of each compound (concentration at which 50% of the histamine release was inhibited, as compared to control) was then calculated.
The H2 agonists, dimaprit and amthamine, were tested in the Miller Test, as described in Example 1, above. Table I and FIG. 1 illustrate the efficacy of dimaprit and amthamine on the inhibition of histamine release from human conjunctival mast cells.

Structure (SMILES)	inhibition of rodent mast cell degranulation (rodent mast cell)	irritation / side effects [1]	inhibition of mast cells obtained from bronchoalveolar lavage fluid [2]	inhibition of histamine release from human skin mast cells (human skin mast cells)	inhibition at 0.1 µM ([3]; 0.1 μM)	inhibition at 1 µM [3]	inhibition at 10 µM [3]	inhibition at 100 µM [3]	inhibition at 1000 µM [3]	inhibition at 10000 µM ([3]; 10,000 μM, * p < 0.05, Dunnett's t-test)
O=C(O)c1cc(=O)c2c(OCC(O)COc3cccc4oc(C(=O)O)cc(=O)c34)cccc2o1 [Disodium cromoglycate]	shown to inhibit rodent mast cell degranulation	irritating to some patients	inhibited mast cells obtained from bronchoalveolar lavage fluid	not inhibited at all	–	–	–	–	–	–
Cc1nc(N)sc1CCN [amthamine]	–	–	–	–	11%	3.6 ± 3.9%	7.3 ± 6.5%	9.9 ± 8.6%	60.5 ± 6.2%	–
CN(C)CCCSC(=N)N [dimaprit]	–	–	–	–	–	10.1 ± 4.2%	14.4 ± 9.3%	35 ± 3.5%	75.9 ± 3.5%	83.6 ± 0.9%
